pIC50: −log10 of the molar value. Activity calls are given as the source filed them. No cut-off for these calls is given here.
System: CWR22R
Assay: cells
Assay type: functional, cell-based
Conditions: Homo sapiens, 22Rv1, 48 h
Description: Antiproliferative activity against AR/AR-V7 positive human 22Rv1 cells assessed as inhibition of cell growth incubated for 48 hrs by CCK-8 assay

Compound | pIC50
CC1(C)C(=O)N(c2ccc(C#N)c(C(F)(F)F)c2)C(=O)N1CCCNc1cccc2ncccc12 | 4.59
CC1(C)C(=O)N(c2ccc(C#N)c(C(F)(F)F)c2)C(=O)N1Cn1cc(Br)cn1 | 4.63
CC1(C)C(=O)N(c2ccc(C#N)c(C(F)(F)F)c2)C(=O)N1CCCNc1cccc2ccncc12 | 4.66
CC1(C)C(=O)N(c2ccc(C#N)c(C(F)(F)F)c2)C(=O)N1CCN(c1ccc(-c2ccncc2)cc1)c1ccc(-c2ccncc2)cc1 | < 4.30
CC1(C)C(=O)N(c2ccc(C#N)c(C(F)(F)F)c2)C(=O)N1CCCn1cc(Br)cn1 | 5.70
CC1(C)C(=O)N(c2ccc(C#N)c(C(F)(F)F)c2)C(=O)N1CCNc1ccc2ccccc2n1 | 4.93
CC1(C)C(=O)N(c2ccc(C#N)c(C(F)(F)F)c2)C(=O)N1CC(=O)Nc1cccnc1 | 4.97
CC1(C)C(=O)N(c2ccc(C#N)c(C(F)(F)F)c2)C(=O)N1CCNc1cccc2ncccc12 | 5.89
CC1(C)C(=O)N(c2ccc(C#N)c(C(F)(F)F)c2)C(=O)N1CCNc1cnc2ccccc2c1 | 4.31
CC1(C)C(=O)N(c2ccc(C#N)c(C(F)(F)F)c2)C(=O)N1CCn1cc(Br)cn1 | 4.33
CC1(C)C(=O)N(c2ccc(C#N)c(C(F)(F)F)c2)C(=O)N1CCCNc1ccc2ncccc2c1 | 4.56
CC1(C)C(=O)N(c2ccc(C#N)c(C(F)(F)F)c2)C(=O)N1CC(=O)NCc1cccnc1 | 4.66
C[C@]12CC[C@H](O)CC1=CC[C@@H]1[C@@H]2CC[C@]2(C)C(n3cnc4ccccc43)=CC[C@@H]12 [GALETERONE] | 4.94
CC1(C)C(=O)N(c2ccc([N+](=O)[O-])c(C(F)(F)F)c2)C(=O)N1CC(=O)NCc1cccnc1 | < 4.30
CC1(C)C(=O)N(c2ccc(C#N)c(C(F)(F)F)c2)C(=O)N1CCCn1cc(C(F)(F)F)cn1 | 4.70
CC1(C)C(=O)N(c2ccc(C#N)c(C(F)(F)F)c2)C(=O)N1CCNc1cccc2cccnc12 | < 4.30
CC1(C)C(=O)N(c2ccc(C#N)c(C(F)(F)F)c2)C(=O)N1CC(=O)Nc1cccc2ncccc12 | 4.60
CC1(C)C(=O)N(c2ccc(C#N)c(C(F)(F)F)c2)C(=O)N1CCN(c1ccc2nccnc2c1)c1ccc2nccnc2c1 | 4.91
CC1(C)C(=O)N(c2ccc(C#N)c(C(F)(F)F)c2)C(=O)N1CCNc1cncnc1 | 4.36
CC1(C)C(=O)N(c2ccc(C#N)c(C(F)(F)F)c2)C(=O)N1CCNc1ncccn1 | 4.60

Compound | pIC50
Cc1ccc(NCCN2C(=O)N(c3ccc(C#N)c(C(F)(F)F)c3)C(=O)C2(C)C)c2cccnc12 | 5.01
N#Cc1ccc(O[C@H]2CC[C@H](NC(=O)c3ccc(N4CCC(CN5CCN(c6cc7c(cc6F)C(=O)N(C6CCC(=O)NC6=O)C7=O)CC5)CC4)nn3)CC2)cc1Cl (stereo not given in full) [BAVDEGALUTAMIDE] | 5.41
CC1(C)C(=O)N(c2ccc(C#N)c(C(F)(F)F)c2)C(=O)N1CCN(c1ccc2ncccc2c1)c1ccc2ncccc2c1 | 5.17
CC1(C)C(=O)N(c2ccc(C#N)c(C(F)(F)F)c2)C(=O)N1CC(=O)Nc1ccc2ncccc2c1 | 4.45
CC1(C)C(=O)N(c2ccc(C#N)c(C(F)(F)F)c2)C(=O)N1CC(=O)Nc1cnc2ccccc2c1 | 4.84
CC1(C)C(=O)N(c2ccc(C#N)c(C(F)(F)F)c2)C(=O)N1CCNc1cccnc1 | 4.92
CC1(C)C(=O)N(c2ccc(C#N)c(C(F)(F)F)c2)C(=O)N1CC(=O)Nc1ccccn1 | 4.77
CC1(C)C(=O)N(c2ccc(C#N)c(C(F)(F)F)c2)C(=O)N1CCNc1cnccn1 | 4.97
CC1(C)C(=O)N(c2ccc(C#N)c(C(F)(F)F)c2)C(=O)N1CCNc1ccc2ncccc2c1 | 5.27
CC1(C)C(=O)N(c2ccc([N+](=O)[O-])c(C(F)(F)F)c2)C(=O)N1CC(=O)NCc1ccccn1 | 4.59
CC1(C)C(=O)N(c2ccc(C#N)c(C(F)(F)F)c2)C(=O)N1CCNc1cccc2ccncc12 | 5.11
CC1(C)C(=O)N(c2ccc(C#N)c(C(F)(F)F)c2)C(=O)N1CCNc1ccc2cccnc2c1 | 5.66
CC1(C)C(=O)N(c2ccc(C#N)c(C(F)(F)F)c2)C(=O)N1CCCn1ccc2cc(F)ccc21 | 4.87
Cc1ccc(NCCCN2C(=O)N(c3ccc(C#N)c(C(F)(F)F)c3)C(=O)C2(C)C)c2cccnc12 | 4.43
CC1(C)C(=O)N(c2ccc(C#N)c(C(F)(F)F)c2)C(=O)N1CCNc1ccccn1 | 4.88
CNC(=O)c1ccc(N2C(=S)N(c3ccc(C#N)c(C(F)(F)F)c3)C(=O)C2(C)C)cc1F [ENZALUTAMIDE] | 4.81
CC1(C)C(=O)N(c2ccc(C#N)c(C(F)(F)F)c2)C(=O)N1CC(=O)NCc1ccccn1 | 4.47
CC(C)(c1ccc(OC[C@H](O)CO)cc1)c1ccc(OC[C@H](O)CCl)cc1 | 4.39
CC1(C)C(=O)N(c2ccc(C#N)c(C(F)(F)F)c2)C(=O)N1CCNc1ccnc2ccccc12 | 5.06
CC1(C)C(=O)N(c2ccc(C#N)c(C(F)(F)F)c2)C(=O)N1CCN(c1ccc2ncncc2c1)c1ccc2ncncc2c1 | 4.82

Compound | pIC50
CC1(C)C(=O)N(c2ccc(C#N)c(C(F)(F)F)c2)C(=O)N1CCNc1ccc2cnccc2c1 | 5.29
CC1(C)C(=O)N(c2ccc(C#N)c(C(F)(F)F)c2)C(=O)N1CCNc1ccc(C#N)c2ncccc12 | 5.55
CC1(C)C(=O)N(c2ccc(C#N)c(C(F)(F)F)c2)C(=O)N1CCn1cc(C(F)(F)F)cn1 | 5.05
CC1(C)C(=O)N(c2ccc(C#N)c(C(F)(F)F)c2)C(=O)N1Cn1cc(C(F)(F)F)cn1 | 4.95
CC1(C)C(=O)N(c2ccc(C#N)c(C(F)(F)F)c2)C(=O)N1CCNc1ccc2ccncc2c1 | 5.64
CC1(C)C(=O)N(c2ccc(C#N)c(C(F)(F)F)c2)C(=O)N1CCn1cnc(C(F)(F)F)n1 | 4.99
CC1(C)C(=O)N(c2ccc(C#N)c(C(F)(F)F)c2)C(=O)N1CCn1cc(F)cn1 | 5.10
CC1(C)C(=O)N(c2ccc(C#N)c(C(F)(F)F)c2)C(=O)N1CCN(c1ccc2cccnc2c1)c1ccc2cccnc2c1 | < 4.30
CC1(C)C(=O)N(c2ccc(C#N)c(C(F)(F)F)c2)C(=O)N1CCNc1ccc2ccccc2c1 | < 4.30
CC1(C)C(=O)N(c2ccc(C#N)c(C(F)(F)F)c2)C(=O)N1CCNc1cccc2ccccc12 | 4.71
CC1(C)C(=O)N(c2ccc(C#N)c(C(F)(F)F)c2)C(=O)N1CCCNc1ccc2ccncc2c1 | 4.66
CC1(C)C(=O)N(c2ccc(C#N)c(C(F)(F)F)c2)C(=O)N1Cn1cc(F)cn1 | 4.84
CC1(C)C(=O)N(c2ccc([N+](=O)[O-])c(C(F)(F)F)c2)C(=O)N1CC(=O)Nc1ccccn1 | < 4.30
CC1(C)C(=O)N(c2ccc(C#N)c(C(F)(F)F)c2)C(=O)N1CC(=O)Nc1ccnc2ccccc12 | 4.86
CC1(C)C(=O)N(c2ccc(C#N)c(C(F)(F)F)c2)C(=O)N1CC(=O)Nc1cccc2cccnc12 | 4.63
CC1(C)C(=O)N(c2ccc([N+](=O)[O-])c(C(F)(F)F)c2)C(=O)N1CC(=O)Nc1cccnc1 | < 4.30
CC1(C)C(=O)N(c2ccc(C#N)c(C(F)(F)F)c2)C(=O)N1CCNc1ccc([N+](=O)[O-])c2ncccc12 | 5.51
CC1(C)C(=O)N(c2ccc(C#N)c(C(F)(F)F)c2)C(=O)N1CCCn1cc(F)cn1 | 5.43

System: DU-145
Assay: Antiproliferative activity against AR-negative human DU-145 cells assessed as inhibition of cell growth incubated for 48 hrs by CCK-8 assay
Assay type: functional, cell-based
Conditions: DU-145, 48 h

Compound | pIC50
Cc1ccc(NCCN2C(=O)N(c3ccc(C#N)c(C(F)(F)F)c3)C(=O)C2(C)C)c2cccnc12 | < 4.30
CC1(C)C(=O)N(c2ccc(C#N)c(C(F)(F)F)c2)C(=O)N1CCNc1cccc2ccncc12 | < 4.30
CC1(C)C(=O)N(c2ccc(C#N)c(C(F)(F)F)c2)C(=O)N1CCNc1ccc2cnccc2c1 | 4.48
CC1(C)C(=O)N(c2ccc(C#N)c(C(F)(F)F)c2)C(=O)N1CCNc1ccc(C#N)c2ncccc12 | < 4.30
CC1(C)C(=O)N(c2ccc(C#N)c(C(F)(F)F)c2)C(=O)N1CCNc1ccc2ccncc2c1 | < 4.30
CC1(C)C(=O)N(c2ccc(C#N)c(C(F)(F)F)c2)C(=O)N1CCNc1ccc([N+](=O)[O-])c2ncccc12 | < 4.30

System: LNCaP
Assay: Antiproliferative activity against human LNCaP cells assessed as inhibition of cell growth incubated for 48 hrs by CCK-8 assay
Assay type: functional, cell-based
Conditions: not given

pIC50 | Compound
5.70 | C[C@]12CC[C@H](O)CC1=CC[C@@H]1[C@@H]2CC[C@]2(C)C(n3cnc4ccccc43)=CC[C@@H]12 [GALETERONE]

System: not listed separately
Assay: Antiproliferative activity against human L02 cells assessed as inhibition of cell growth incubated for 48 hrs by CCK-8 assay
Assay type: toxicity, cell-based
Conditions: not given

Compound | IC50 at 48 h
C[C@]12CC[C@H](O)CC1=CC[C@@H]1[C@@H]2CC[C@]2(C)C(n3cnc4ccccc43)=CC[C@@H]12 [GALETERONE] | > 100 µM

System: not listed separately
Assay: Toxicity in NSG mouse xenografted with human 22Rv1 cells assessed as effect on body weight at 30 mg/kg, IG administered once daily for 21 days
Assay type: organism-based, CWR22R
Conditions: in vivo, po, 504 h, time 21 day

Compound | Activity
C[C@]12CC[C@H](O)CC1=CC[C@@H]1[C@@H]2CC[C@]2(C)C(c3cccnc3)=CC[C@@H]12 [ABIRATERONE] | Non-Toxic
CNC(=O)c1ccc(N2C(=S)N(c3ccc(C#N)c(C(F)(F)F)c3)C(=O)C2(C)C)cc1F [ENZALUTAMIDE] | Non-Toxic

System: CWR22R
Assay: Antitumor activity against human 22Rv1 cells xenografted in NSG mouse assessed as change in tumor volume at 30 mg/kg, IG administered once daily for 21 days
Assay type: functional, organism-based
Conditions: time 21.0 day

Compound | Activity
C[C@]12CC[C@H](O)CC1=CC[C@@H]1[C@@H]2CC[C@]2(C)C(c3cccnc3)=CC[C@@H]12 [ABIRATERONE] | Active
CNC(=O)c1ccc(N2C(=S)N(c3ccc(C#N)c(C(F)(F)F)c3)C(=O)C2(C)C)cc1F [ENZALUTAMIDE] | Active

— ChEMBL document CHEMBL5518238, “Structure-Activity Relationship (SAR) Studies of Novel Monovalent AR/AR-V7 Dual Degraders with Potent Efficacy against Advanced Prostate Cancer” (J Med Chem, 2024)
